Here are results for 7 compounds from ChEMBL document CHEMBL1130911 (Bioorg Med Chem Lett, 1998).

Starred links: 1 amine or outer side, 2 acyl side, 3 side chain; linkers in the order of their positions; H or OH if unused. Non-standard residues stand in square brackets, D forms with d. Residues, ends and D or L forms follow the SMILES beside them. X1 = O=C([C@@]1(N[*:1])CCCC[C@@H]1O)[*:2]; X2 = O=C([C@@]1(N[*:1])CCCC[C@H]1O)[*:2]; X3 = O=C([C@@]1(N[*:1])CCC[C@@H]1O)[*:2]; X4 = O=C([C@]1(N[*:1])CCC[C@H]1O)[*:2]

Experiment [1] has as its target T1, Delta-type opioid receptor (Rattus norvegicus, UniProt P33533). As to the kind of experiment: Inhibitory activity against forskolin-stimulated cAMP production in chinese hamster ovary cells expressing Opioid receptor delta 1. Type of experiment: functional, cell-based, CHO. A general note: Changes in cAMP serve as a functional read-out for many G protein-coupled receptors.

The target of experiment [2] is T1, Delta-type opioid receptor. As to the kind of experiment: biochemical. It is filed as cell-based, CHO.
Description: Binding affinity against rat Opioid receptor delta 1 expressed in CHO cells determined by competitive inhibition of 1 nM [3H]DPDPE.
The target of the next experiment is Mu-type opioid receptor (Rattus norvegicus, UniProt P33535). As to the kind of experiment: biochemical. Type of experiment: cell-based, CHO.
For experiment [3], the target named is Kappa-type opioid receptor (Rattus norvegicus, UniProt P34975). As to the kind of experiment: biochemical. Type of experiment: cell-based, CHO.
Sequence of Kappa-type opioid receptor (P34975 whole entry): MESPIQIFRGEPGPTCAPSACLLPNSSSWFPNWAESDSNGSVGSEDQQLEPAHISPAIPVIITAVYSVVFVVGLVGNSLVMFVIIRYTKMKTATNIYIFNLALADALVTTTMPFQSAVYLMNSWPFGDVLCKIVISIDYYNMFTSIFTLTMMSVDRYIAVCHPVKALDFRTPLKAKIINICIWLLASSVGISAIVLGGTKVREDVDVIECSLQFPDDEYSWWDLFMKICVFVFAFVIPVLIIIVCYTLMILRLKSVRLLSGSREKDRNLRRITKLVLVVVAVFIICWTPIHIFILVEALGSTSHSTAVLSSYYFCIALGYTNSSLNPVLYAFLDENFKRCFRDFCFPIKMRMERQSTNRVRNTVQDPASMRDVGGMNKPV

Sequence of Mu-type opioid receptor (P33535 whole entry): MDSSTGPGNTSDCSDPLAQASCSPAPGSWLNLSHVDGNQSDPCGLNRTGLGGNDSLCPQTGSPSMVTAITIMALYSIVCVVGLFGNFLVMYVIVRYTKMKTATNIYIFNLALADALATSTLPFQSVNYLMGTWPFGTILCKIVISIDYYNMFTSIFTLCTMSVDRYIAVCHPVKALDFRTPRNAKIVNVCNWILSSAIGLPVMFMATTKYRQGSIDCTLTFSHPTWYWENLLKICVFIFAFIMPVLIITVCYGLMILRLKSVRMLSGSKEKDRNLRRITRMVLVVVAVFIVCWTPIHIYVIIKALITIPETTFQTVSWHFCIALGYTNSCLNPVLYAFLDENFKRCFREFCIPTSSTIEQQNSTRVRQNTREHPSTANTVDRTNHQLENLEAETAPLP
T1 sequence (P33533 whole entry): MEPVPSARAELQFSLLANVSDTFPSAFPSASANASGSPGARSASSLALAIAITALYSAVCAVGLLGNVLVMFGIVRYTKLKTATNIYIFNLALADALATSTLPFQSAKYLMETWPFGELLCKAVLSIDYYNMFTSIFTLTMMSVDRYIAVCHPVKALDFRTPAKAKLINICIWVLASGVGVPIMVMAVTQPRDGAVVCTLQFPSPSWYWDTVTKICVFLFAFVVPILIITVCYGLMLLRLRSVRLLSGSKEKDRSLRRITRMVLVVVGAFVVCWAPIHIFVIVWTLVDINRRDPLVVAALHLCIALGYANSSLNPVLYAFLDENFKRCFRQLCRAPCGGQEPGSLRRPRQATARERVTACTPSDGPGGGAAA

Turning to `CC(C)C[C@@H](NC(=O)[C@@H](Cc1ccccc1)NC(=O)CNC(=O)[C@](C)(CO)NC(=O)[C@H](N)Cc1ccc(O)cc1)C(=O)O`, the IC50 (in general, the concentration that gives 50% inhibition) was 5000 nM in experiment [1] (cho), 2500 nM in experiment [2] (cho), above 10000 nM at Mu-type opioid receptor (cho) and above 10 µM in experiment [3] (cho).
On to `CC(C)C[C@H](NC(=O)[C@H](Cc1ccccc1)NC(=O)CNC(=O)[C@]1(NC(=O)[C@@H](N)Cc2ccc(O)cc2)CCC[C@H]1O)C(=O)O` (H-Y[X4]GFL-OH), for which the IC50 in experiment [1] is 10 nM; at Mu-type opioid receptor, 320 nM; in experiment [3] it was above 10 µM.
In the case of `CC(C)C[C@H](NC(=O)[C@H](Cc1ccccc1)NC(=O)CNC(=O)C(C)(C)NC(=O)[C@@H](N)Cc1ccc(O)cc1)C(=O)O` (single isomer, unassigned), the IC50 is 140 nM in experiment [1], 50 nM in experiment [2], 158 nM against Mu-type opioid receptor and above 10 µM in experiment [3].
Take `CC(C)C[C@H](NC(=O)[C@H](Cc1ccccc1)NC(=O)CNC(=O)[C@@]1(NC(=O)[C@@H](N)Cc2ccc(O)cc2)CCC[C@@H]1O)C(=O)O` (H-Y[X3]GFL-OH): the IC50 was 0.01 nM in experiment [1], 0.04 nM in experiment [2], 2.5 nM on Mu-type opioid receptor and above 10 µM in experiment [3].
Taken in the same sequence, the figures for `CC(C)C[C@H](NC(=O)[C@H](Cc1ccccc1)NC(=O)CNC(=O)[C@@]1(NC(=O)[C@@H](N)Cc2ccc(O)cc2)CCCC[C@H]1O)C(=O)O` (H-Y[X2]GFL-OH) were 2 nM, 1 nM, 50 nM and above 10 µM.
On to `CC(C)C[C@@H](NC(=O)[C@@H](Cc1ccccc1)NC(=O)CNC(=O)[C@@](C)(CO)NC(=O)[C@H](N)Cc1ccc(O)cc1)C(=O)O`, for which the half-maximal inhibitory concentration (IC50) in experiment [1] (cho) was 0.071 nM; in experiment [2] (cho) it was 0.4 nM; on Mu-type opioid receptor (cho) it was 6.3 nM; in experiment [3] (cho), above 10 µM.
In the case of `CC(C)C[C@H](NC(=O)[C@H](Cc1ccccc1)NC(=O)CNC(=O)[C@@]1(NC(=O)[C@@H](N)Cc2ccc(O)cc2)CCCC[C@@H]1O)C(=O)O` (H-Y[X1]GFL-OH), the IC50 in experiment [1] turned out to be 0.005 nM; in experiment [2], 0.01 nM; against Mu-type opioid receptor, 0.25 nM; in experiment [3] it was 6.31 µM.
